Experimental data reported in ChEMBL document CHEMBL1795217, “New vasorelaxant indole alkaloids, villocarines A-D from Uncaria villosa” (Bioorg Med Chem, 2011).
Activity calls are given as the source filed them.

Columns and labels:
Aorta [1] = assay: Vasorelaxant activity in endothelium denuded Wistar rat thoracic aortic rings assessed as inhibition of phenylephrine-induced contraction at 30 uM; assay type: functional, tissue-based
Aorta [2] = assay: Vasorelaxant activity in endothelium denuded Wistar rat thoracic aortic rings assessed as inhibition of phenylephrine-induced contraction at 30 uM in presence of Ca2+-free medium pre-incubated with 1 uM phenylephrine abd 1 uM nicardipine
Aorta [3] = assay: Vasorelaxant activity in Wistar rat thoracic aortic rings with endothelium assessed as inhibition of phenylephrine-induced contraction at 30 uM measured 10 to 30 mins within compound dosing; assay type: functional, tissue-based
Aorta [4] = assay: Vasorelaxant activity in endothelium denuded Wistar rat thoracic aortic rings assessed as inhibition of calcium-induced contraction at 30 uM in presence of Ca2+-free K+-rich medium; assay type: functional, tissue-based

Measured: Activity

C/C=C1/CN2CCc3c([nH]c4ccccc34)[C@H]2C[C@@H]1/C(=C\OC)C(=O)OC
active: all assays above
